Assay results as given in the supplement of paper PMC10307832.

What was measured:
Assay in all cases: relative viability (nuclei count vs DMSO), 5 days (fraction); higher = more cells survive
[1] = compound: COc1cc(-c2nn([C@H]3CC[C@H](N4CCN(C(C)=O)CC4)CC3)c3ncnc(N)c23)ccc1NC(=O)c1cc2ccccc2n1C + Nc1ncn([C@H]2C[C@H](O)[C@@H](CO)O2)c(=O)n1 [Decitabine] (partner 2 µM)
In short: (§1)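 One day after seeding in 1536-well plates, lung cancer cell lines were dosed by pin tool. Dosing was either single-drug or a fixed anchor-drug dose plus five library-drug doses (not always all listed) in √10 steps. After 5 days, nuclei were stained in one fix-and-stain step and counted on 4× images, and relative viability is the nuclei count of treated wells over that of vehicle wells, given as the median of duplicate plates.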

[2] = compound: COc1cc(-c2nn([C@H]3CC[C@H](N4CCN(C(C)=O)CC4)CC3)c3ncnc(N)c23)ccc1NC(=O)c1cc2ccccc2n1C + CS(=O)(=O)CCNCc1ccc(-c2ccc3ncnc(Nc4ccc(OCc5cccc(F)c5)c(Cl)c4)c3c2)o1 [Lapatinib] (partner 2 µM)
In short: as §1

[3] = compound: CO[C@@H]1[C@H](N(C)C(=O)c2ccccc2)C[C@H]2O[C@]1(C)n1c3ccccc3c3c4c(c5c6ccccc6n2c5c31)C(=O)NC4 [Midostaurin] + CC(=O)c1c(C)c2cnc(Nc3ccc(N4CCNCC4)cn3)nc2n(C2CCCC2)c1=O [Palbociclib] (partner 0.5 µM)
In short: as §1

[4] = compound: COc1cc(-c2nn([C@H]3CC[C@H](N4CCN(C(C)=O)CC4)CC3)c3ncnc(N)c23)ccc1NC(=O)c1cc2ccccc2n1C + O=C(CCCCCCC(=O)Nc1ccccc1)NO [Vorinostat] (partner 1 µM)
In short: as §1

[5] = compound: COc1cc(-c2nn([C@H]3CC[C@H](N4CCN(C(C)=O)CC4)CC3)c3ncnc(N)c23)ccc1NC(=O)c1cc2ccccc2n1C + Cc1nc(NC(=O)N2CCC[C@H]2C(N)=O)sc1-c1ccnc(C(C)(C)C(F)(F)F)c1 [Alpelisib] (partner 2 µM)
In short: as §1

Cell Line	relative viability ([1]; first compound 0.0128 µM)	relative viability ([1]; first compound 0.04048 µM)	relative viability ([1]; first compound 0.128 µM)	relative viability ([1]; first compound 1.28 µM)	relative viability ([2]; first compound 0.0128 µM)	relative viability ([2]; first compound 0.04048 µM)	relative viability ([2]; first compound 0.128 µM)	relative viability ([2]; first compound 1.28 µM)	relative viability ([3]; first compound 0.01 µM)	relative viability ([3]; first compound 0.03162 µM)	relative viability ([3]; first compound 0.1 µM)	relative viability ([3]; first compound 0.3162 µM)	relative viability ([4]; first compound 0.0128 µM)	relative viability ([4]; first compound 0.04048 µM)	relative viability ([4]; first compound 0.128 µM)	relative viability ([4]; first compound 1.28 µM)	relative viability ([5]; first compound 0.0128 µM)	relative viability ([5]; first compound 0.04048 µM)	relative viability ([5]; first compound 0.128 µM)	relative viability ([5]; first compound 1.28 µM)
NCI-H1975	0.406	0.33	0.376	0.235	0.891	0.928	0.837	0.447	0.524	0.65	0.564	0.583	0.724	0.735	0.624	0.41	0.659	0.757	0.547	0.257
CAL-12T					0.615	0.686	0.659	0.384	0.513	0.492	0.405	0.308	0.871	0.706	0.702	0.753	1.32	1.25	1.34	0.998
HCC-44	1.13	0.979	0.846	1.04	1.08	1.21	0.937	1.23	1.01	1.02	0.942	0.99	1.24	1.1	1.12	1.18	0.923	0.763	0.789	0.511
EKVX	0.372	0.36	0.349	0.288	0.217	0.203	0.189	0.154	0.443	0.45	0.362	0.401	0.966	0.801	0.674	0.382	0.827	1.09	0.75	0.509
NCI-H1651	0.587	0.654	0.605	0.438	0.961	1.03	0.621	0.74	0.518	0.52	0.525	0.53	0.571	0.618	0.545	0.495	0.965	0.941	0.911	0.862
NCI-H1944	0.483	0.371	0.456	0.451	0.944	0.95	0.777	0.69	0.36	0.402	0.318	0.35	0.654	0.641	0.578	0.416	0.827	0.879	0.784	0.506
NCI-H1703					1.09	0.988	0.842	0.352									0.372	0.243	0.228	0.157
Calu-6					1.08	1.01	0.91	0.875									0.927	0.936	0.943	0.829
EBC-1					0.203	0.23	0.205	0.19									0.823	0.785	0.723	0.732
SW 1573	0.527	0.446	0.491	0.366	0.981	1	0.914	0.808	0.422	0.504	0.424	0.247	0.805	0.735	0.817	0.723	0.788	0.508	0.695	0.509
A-427	0.529	0.589	0.571	0.666	1.18	0.944	0.852	0.907	0.486	0.566	0.513	0.508	0.9	0.972	0.763	0.856	1.15	0.959	1.01	0.908
NCI-H2347	0.618	0.612	0.57	0.639	1.1	0.874	0.927	1.05	0.442	0.449	0.395	0.404	0.658	0.499	0.521	0.543	1.05	0.948	0.924	1.03
NCI-H1355	0.332	0.35	0.338	0.372	1.11	0.928	0.952	0.897	0.409	0.429	0.443	0.468	0.801	0.639	0.641	0.625	0.981	0.795	0.828	0.737
NCI-H358	0.224	0.206	0.246	0.167	0.455	0.391	0.335	0.27	0.123	0.134	0.114	0.136	0.706	0.672	0.523	0.646	0.725	0.747	0.76	0.555
PC-3 [JPC-3]	0.923	0.894	0.847	0.865	0.444	0.444	0.431	0.462	0.561	0.554	0.546	0.602	0.667	0.989	0.808	1.01	1.04	1.09	1.04	1.09
NCI-H2228					1.37	0.958	1.14	0.861	0.569	0.954	0.842	0.845	0.869	0.609	0.568	0.527	0.774	0.793	0.692	0.45
HOP-62	0.241	0.191	0.207	0.283	1.09	0.891	0.865	1.03	0.452	0.48	0.455	0.501	1.01	0.546	0.601	0.585	1.04	0.907	0.952	0.774
